Source: the supplement of paper PMC10307832

Key:
Test in all cases: relative viability (nuclei count vs DMSO), 5 days (fraction); higher = more cells survive
NCI-H2126 = system: NCI-H2126
In short: (§1)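 Cells from lung cancer lines were seeded into 1536-well plates and, one day later, dosed by pin tool. Treatments were either a single drug or a fixed dose of an anchor drug with five library-drug doses (not always all listed) in √10 steps. After 5 days, nuclei were stained in a one-step fixation (final 0.05% Triton X-100, 1% formaldehyde, 1 ug/ml Hoechst) and counted on 4× images, and relative viability is the treated-to-vehicle nuclei ratio, as the median of duplicate plates.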

RERF-LC-KJ = system: RERF-LC-KJ
In short: as §1

SW 900 = system: SW 900
In short: as §1

NCI-H2405 = system: NCI-H2405
In short: as §1

LK-2 = system: LK-2
In short: as §1

SW 1573 = system: SW 1573
In short: as §1

HCC-78 = system: HCC-78
In short: as §1

NCI-H23 = system: NCI-H23
In short: as §1

LOU-NH91 = system: LOU-NH91
In short: as §1

LU99A = system: LU99A
In short: as §1

EPLC-272H = system: EPLC-272H
In short: as §1

LCLC-103H = system: LCLC-103H
In short: as §1

COc1cc(N2CCC(C(N)=O)CC2)ccc1Nc1nc(N)c(Cl)c(Nc2ccccc2S(=O)(=O)C(C)C)n1 [HG-5-88-01] + Nc1ncn([C@H]2C[C@H](O)[C@@H](CO)O2)c(=O)n1 [Decitabine] (partner 2 µM)
relative viability (NCI-H2126; first compound 0.04 µM): 0.603
relative viability (NCI-H2126; first compound 0.1265 µM): 0.586
relative viability (NCI-H2126; first compound 0.4 µM): 0.568
relative viability (NCI-H2126; first compound 1.265 µM): 0.6
relative viability (NCI-H2126; first compound 4 µM): 0.556
relative viability (RERF-LC-KJ; first compound 0.04 µM): 0.736
relative viability (RERF-LC-KJ; first compound 0.1265 µM): 0.737
relative viability (RERF-LC-KJ; first compound 0.4 µM): 0.7
relative viability (RERF-LC-KJ; first compound 1.265 µM): 0.781
relative viability (RERF-LC-KJ; first compound 4 µM): 0.528
relative viability (SW 900; first compound 0.04 µM): 0.419
relative viability (SW 900; first compound 0.1265 µM): 0.441
relative viability (SW 900; first compound 0.4 µM): 0.528
relative viability (SW 900; first compound 1.265 µM): 0.492
relative viability (SW 900; first compound 4 µM): 0.436
relative viability (NCI-H2405; first compound 0.04 µM): 0.67
relative viability (NCI-H2405; first compound 0.1265 µM): 0.754
relative viability (NCI-H2405; first compound 0.4 µM): 0.783
relative viability (NCI-H2405; first compound 1.265 µM): 0.624
relative viability (NCI-H2405; first compound 4 µM): 0.672
relative viability (LK-2; first compound 0.04 µM): 0.254
relative viability (LK-2; first compound 0.1265 µM): 0.327
relative viability (LK-2; first compound 0.4 µM): 0.386
relative viability (LK-2; first compound 4 µM): 0.236
relative viability (SW 1573; first compound 0.04 µM): 0.454
relative viability (SW 1573; first compound 0.1265 µM): 0.593
relative viability (SW 1573; first compound 0.4 µM): 0.423
relative viability (SW 1573; first compound 1.265 µM): 0.428
relative viability (SW 1573; first compound 4 µM): 0.458
relative viability (HCC-78; first compound 0.04 µM): 0.696
relative viability (HCC-78; first compound 0.1265 µM): 0.598
relative viability (HCC-78; first compound 0.4 µM): 0.62
relative viability (HCC-78; first compound 1.265 µM): 0.411
relative viability (HCC-78; first compound 4 µM): 0.432
relative viability (NCI-H23; first compound 0.04 µM): 0.365
relative viability (NCI-H23; first compound 0.1265 µM): 0.331
relative viability (NCI-H23; first compound 0.4 µM): 0.327
relative viability (NCI-H23; first compound 1.265 µM): 0.282
relative viability (NCI-H23; first compound 4 µM): 0.329
relative viability (LOU-NH91; first compound 0.04 µM): 0.796
relative viability (LOU-NH91; first compound 0.1265 µM): 0.844
relative viability (LOU-NH91; first compound 0.4 µM): 0.725
relative viability (LOU-NH91; first compound 1.265 µM): 0.587
relative viability (LOU-NH91; first compound 4 µM): 0.6
relative viability (LU99A; first compound 0.04 µM): 0.896
relative viability (LU99A; first compound 0.1265 µM): 0.929
relative viability (LU99A; first compound 0.4 µM): 0.915
relative viability (LU99A; first compound 1.265 µM): 0.93
relative viability (LU99A; first compound 4 µM): 0.839
relative viability (EPLC-272H; first compound 0.04 µM): 0.32
relative viability (EPLC-272H; first compound 0.1265 µM): 0.371
relative viability (EPLC-272H; first compound 0.4 µM): 0.47
relative viability (EPLC-272H; first compound 1.265 µM): 0.266
relative viability (EPLC-272H; first compound 4 µM): 0.117
relative viability (LCLC-103H; first compound 0.04 µM): 0.776
relative viability (LCLC-103H; first compound 0.1265 µM): 0.735
relative viability (LCLC-103H; first compound 0.4 µM): 0.738
